Patent publication US11878994B1, “Compositions for treatment of inflammation” (Metro International Biotech, LLC, priority 2021, dated 2024)

Key:
[1] = system: Jurkat cells; assay: NAD Elevation Assay (NAD Cellular Assay), Jurkat cells; format: cell-based; conditions: @ 1 mM, NAD normalized to total protein, multiple of NAD level in untreated cells
Method: Compounds were tested in an NAD Cellular Assay according to the following protocol. Jurkat cells (50,000 per in 100 microliters of RPMI media) were added to wells of a 96 well, conical bottomed plate. The cells were allowed to recover for 3 h in culture. A 16 microliter aliquot of a 100 mM compound stock solution was diluted with 784 microliters of medium and 10% FBS to give 800 microliters of a 2 mM compound treatment solution. The compound treatment solution was added to the cells for a final concentration of 1 mM compound (n=6 wells for each compound.) As a parallel control, nicotinamide mononucleotide (NMN) was added to cells at a final concentration of 2 mM (n=6). The plates were incubated for 24 hours, then spun at 1000 rpm for 10 min. The medium was removed, then the cells were washed with fresh PBS and spun again. The PBS medium was removed, then the cells were washed one more time with PBS and spun. The liquid was removed from each well via pipette, avoiding touching the cell pellet. The cells were lysed with 75 microliters of 0.5% DTAB. […] The NAD concentration in each well was determined using a commercially available assay according to the kit instructions (e.g. Promega NAD/NADH-Glo™ Assay.) The Pierce BCA protein assay was run according to the kit instructions (e.g. ThermoScientific Catalog number 23225). […]

[2] = system: NDF Cells; assay: NAD Elevation Assay (NAD Cellular Assay), NDF cells; format: cell-based; conditions: @ 0.25 mM, multiple of NAD level in untreated cells
Method: Compounds were tested in an NAD Cellular Assay according to the following protocol. Jurkat cells (50,000 per in 100 microliters of RPMI media) were added to wells of a 96 well, conical bottomed plate. The cells were allowed to recover for 3 h in culture. A 16 microliter aliquot of a 100 mM compound stock solution was diluted with 784 microliters of medium and 10% FBS to give 800 microliters of a 2 mM compound treatment solution. The compound treatment solution was added to the cells for a final concentration of 1 mM compound (n=6 wells for each compound.) As a parallel control, nicotinamide mononucleotide (NMN) was added to cells at a final concentration of 2 mM (n=6). The plates were incubated for 24 hours, then spun at 1000 rpm for 10 min. The medium was removed, then the cells were washed with fresh PBS and spun again. The PBS medium was removed, then the cells were washed one more time with PBS and spun. The liquid was removed from each well via pipette, avoiding touching the cell pellet. The cells were lysed with 75 microliters of 0.5% DTAB. 25 microliters of the lysate was added to each of two flat bottomed plates. One plate was used for a BCA protein assay (clear), and the other plate was used for the NAD assay (clear bottom, white walled). The NAD concentration in each well was determined using a commercially available assay according to the kit instructions (e.g. Promega NAD/NADH-Glo™ Assay.) The Pierce BCA protein assay was run according to the kit instructions (e.g. ThermoScientific Catalog number 23225). NAD levels were normalized to total protein and reported as a multiple of the NAD level in untreated cells.
Assays with other cell types were run similarly, using the appropriate compound and NMN dilutions. Cell counts were adjusted as necessary to provide a signal within the reading range of the protein and NAD assay kits.

| SMILES | NAD Elevation Assay [1] [× @ 1] | NAD Elevation Assay [2] [× @ 0.25] |
| --- | --- | --- |
| Cn1c(=O)c2c(ncn2CCOC(=O)c2ccc[n+]([C@@H]3O[C@H](CO)[C@@H](O)[C@H]3O)c2)n(C)c1=O.O=S(=O)([O-])C(F)(F)F [Compound 2, 1-((2R,3R,4S,5R)-3,4-dihydroxy-5-(hydroxymethyl)tetrahydrofuran-2-yl)-3-((2-(1,3-dimethyl-2,6-dioxo-1,2,3,6-tetrahydro-7H-purin-7-yl)ethoxy)carbonyl)pyridin-1-ium trifluoromethanesulfonate] | 2.9 | – |
| Cn1cnc2c1c(=O)n(CCCOC(=O)c1ccc[n+]([C@@H]3O[C@H](COP(=O)([O-])O)[C@@H](O)[C@H]3O)c1)c(=O)n2C [Compound 5P, ((2R,3S,4R,5R)-5-(3-((3-(3,7-dimethyl-2,6-dioxo-2,3,6,7-tetrahydro-1H-purin-1-yl)propoxy)carbonyl)pyridin-1-ium-1-yl)-3,4-dihydroxytetrahydrofuran-2-yl)methyl hydrogen phosphate] | – | 2.2 |
| Cn1c(=O)c2c(ncn2CC(=O)OCCCOC(=O)c2ccc[n+]([C@@H]3O[C@H](COP(=O)([O-])O)[C@@H](O)[C@H]3O)c2)n(C)c1=O [Compound 6P, ((2R,3S,4R,5R)-5-(3-((3-(2-(1,3-dimethyl-2,6-dioxo-1,2,3,6-tetrahydro-7H-purin-7-yl)acetoxy)propoxy)carbonyl)pyridin-1-ium-1-yl)-3,4-dihydroxytetrahydrofuran-2-yl)methyl hydrogen phosphate] | – | 2.0 |
| CCCn1cnc2c1c(=O)n(CCOC(=O)c1ccc[n+]([C@@H]3O[C@H](COP(=O)([O-])O)[C@@H](O)[C@H]3O)c1)c(=O)n2C [Compound 7P, ((2R,3 S,4R,5R)-3,4-dihydroxy-5-(3-((2-(3-methyl-2,6-dioxo-7-propyl-2,3,6,7-tetrahydro-1H-purin-1-yl)ethoxy)carbonyl)pyridin-1-ium-1-yl)tetrahydrofuran-2-yl)methyl hydrogen phosphate] | – | 1.9 |
